The source of these data is patent publication US11261230B2, “Synthetic somatostatin receptor ligands” (TEL HASHOMER MEDICAL RESEARCH INFRASTRUCTURE AND SERVICES …, priority 2014, dated 2022).

For data set [1], the system named is PANC-1 tumors. Conditions: mouse, in vivo.
Protocol: Five different pharmaceutical compositions were prepared, each by dissolving 1 mg of a different Somatostatin receptor ligand in 1 liter PBS.
Solid human-derived tumors were induced in 15 nude mice by subcutaneous injection of a suspension containing ˜5□10^5 human cancer cells (PANC-1) into the flank area of the mice.
2-3 weeks after the injection of the cancer cells, it was observed that the mice developed solid tumors with diameters of approximately 5-10 mm.
0.3 ml of each one of the five pharmaceutical compositions were systemically administered to three of the fifteen xenograft mice by injection into the tail vein using a 30 G needle.
The fifteen mice were sacrificed and from the bodies tumors, pancreas, spleen, kidney and liver were harvested.
The fluorescence of the harvested tissue was determined using the Maestro™ in vivo fluorescence imaging system (Cambridge Research & Instrumentation, Inc., Woburn, Mass., USA).
For data set [2], the target named is T1, human SSTR2 (Homo sapiens, UniProt P30874).
T1 construct: expressed in transfected cells; host or cells: HEK-293, transient transfection, pcDNA 3.1
In words: Binding to transfected HEK cells expressing a single SSTRx subtype, FACS. The protocol: (§1) The affinity of compounds 1-16 to each of the five SSTRx was tested using an in vitro model of transfected cell lines (HEK—human embryonic kidney), each expressing a single human SSTRx subtype. Biological activity assessment of the compounds to define a specific affinity to each subtype was performed by FACS and fluorescence imaging methods.
(§2) Human SSTRx were expressed in the cells by transient transfection. Each SSTR was expressed separately, creating five different cell lines using human gene transcript.
(§3) The transfection process is illustrated in FIG. 1. The transient transfection process was carried out before each experiment. Briefly, HEK cells were cultured in standard cell growth conditions. For testing, the cells were transferred into 96-well plates. The tested compounds were dissolved in DMSO and then diluted in a buffer solution to a final DMSO concentration of 5% as a composition according to the teachings herein. Various amounts of the thus-prepared compositions were added to the cells in medium in the 96-well plates and allowed to incubate for between 1 and 24 hours. Binding was determined using fluorescent microscopy and FACS.
(§4) Qualitative assessment of binding efficiency was done by visual inspection and digital photography using an inverted fluorescent microscope. Quantitative assessment was done using FACS.
(§5) HEK-293 cells (human embryonic kidney) were grown in Dulbecco's modified Eagle's medium (DMEM) supplemented with 4 mM glutamine, 10% fetal bovine serum (FBS) and 100 units/ml penicillin/streptomycin at 37° C./5% carbon dioxide. One day prior to transfection, the cells were trypsinized, counted and plated at a density of 3×10^5 per 35 mm diameter dish. Until 70% confluency, cells were transiently transfected with the pcDNA 3.1 vector bearing the coding region for the human SSTR human somatostatin receptor subtypes SSTR1-SSTR5. Transfections were carried out with JetPei transfection reagent (Polyplus-transfection, NY, USA) according to the manufacturer's recommendation. Briefly, 2 micrograms of plasmid DNA and 6 microliter of JetPei transfection reagent were used for each transfection. Each of the components were resuspended in 100 microliter of 150 mM NaCl, mixed and incubated for 25 minutes at room temperature and after incubation added to cells.
(§6) Cells were then seeded in a 96-well flat-bottom microplate (Costar, Corning, N.Y.) at a concentration of 5×10^4 cells/well. Twelve hours later, the supernatant was removed and replaced with fresh DMEM containing various (in the nM range) concentrations of tested compounds 1-16. The cells were incubated for additional time intervals ranging from 0.5-24 hr. At the end of the incubation period, supernatant was discarded and the cells were washed twice with cold PBS. The plates were examined using IX81 inverted microscope (Olympus, Japan) equipped with […] digital camera. Additionally, a FACS assay was used for quantitative analysis.
(§7) Quantitative assessment of binding affinity of Compounds 1-16 was performed by FACS in the transfected HEK cell model.
(§8) Quantitatively, specific binding affinity was assessed as the percentage of double stained [(GR=green and red indicating transfection)/(R is total red) less (G is green indicating unspecific binding)]: specific binding affinity=[GR/R−G]

Data set [3] concerns the target T2, human SSTR1 (Homo sapiens, UniProt P30872).
T2 construct: expressed in transfected cells; host or cells: HEK-293, transient transfection, pcDNA 3.1
The description is as above. The protocol:
as §1, §2, §3, §4, §5, §6, §7, §8

The target of data set [4] is T3, human SSTR4 (Homo sapiens, UniProt P31391).
T3 construct: expressed in transfected cells; host or cells: HEK-293, transient transfection, pcDNA 3.1
T3 sequence (P31391 whole entry): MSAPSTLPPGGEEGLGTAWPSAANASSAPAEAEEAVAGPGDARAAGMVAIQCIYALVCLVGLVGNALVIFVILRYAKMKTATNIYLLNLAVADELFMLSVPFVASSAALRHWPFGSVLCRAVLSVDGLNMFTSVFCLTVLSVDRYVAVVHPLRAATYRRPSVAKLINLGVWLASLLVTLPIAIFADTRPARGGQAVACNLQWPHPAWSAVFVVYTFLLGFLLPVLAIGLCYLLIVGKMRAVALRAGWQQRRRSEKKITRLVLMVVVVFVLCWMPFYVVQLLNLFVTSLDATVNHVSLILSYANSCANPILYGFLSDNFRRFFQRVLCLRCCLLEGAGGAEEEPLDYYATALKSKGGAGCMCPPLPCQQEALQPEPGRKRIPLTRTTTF
The data set is described as above. As for the experimental part: as §1, §2, §3, §4, §5, §6, §7, §8

Data set [5] concerns the target T4, human SSTR3 (Homo sapiens, UniProt P32745).
T4 construct: expressed in transfected cells; host or cells: HEK-293, transient transfection, pcDNA 3.1
Described as above. The protocol: as §1, §2, §3, §4, §5, §6, §7, §8

The target of data set [6] is T5, human SSTR5 (Homo sapiens, UniProt P35346).
T5 construct: expressed in transfected cells; host or cells: HEK-293, transient transfection, pcDNA 3.1
T5 sequence (P35346 whole entry): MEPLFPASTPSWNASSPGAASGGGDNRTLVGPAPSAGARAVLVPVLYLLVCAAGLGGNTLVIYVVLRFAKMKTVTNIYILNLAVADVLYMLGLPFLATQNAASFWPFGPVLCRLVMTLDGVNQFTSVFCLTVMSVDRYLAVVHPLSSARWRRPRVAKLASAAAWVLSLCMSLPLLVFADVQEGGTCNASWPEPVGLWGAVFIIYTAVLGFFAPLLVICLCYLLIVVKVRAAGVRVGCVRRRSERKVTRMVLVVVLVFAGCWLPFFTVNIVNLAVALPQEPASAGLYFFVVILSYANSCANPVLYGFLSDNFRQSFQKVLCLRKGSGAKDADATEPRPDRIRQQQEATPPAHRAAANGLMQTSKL
In words: Binding to transfected HEK cells expressing a single SSTRx subtype, FACS and fluorescence microscopy. As for the experimental part: as §1, §2, §3, §4, §5, §6, §7, §8

Data set [7] relates to SSTR1-SSTR5. Kind of data set: Binding specificity across the five SSTRx transfected HEK cell lines. Also on record: species or system human. Conditions: conclusions drawn from Table 2-A. The protocol: Biological activity assessment of the compounds to define a specific affinity to each subtype was performed by FACS and fluorescence imaging methods. Human SSTRx were expressed in the cells by transient transfection. Each SSTR was expressed separately, creating five different cell lines using human gene transcript. The transfection process is illustrated in FIG. 1. The transient transfection process was carried out before each experiment. Briefly, HEK cells were cultured in standard cell growth conditions. For testing, the cells were transferred into 96-well plates. The tested compounds were dissolved in DMSO and then diluted in a buffer solution to a final DMSO concentration of 5% as a composition according to the teachings herein. Various amounts of the thus-prepared compositions were added to the cells in medium in the 96-well plates and allowed to incubate for between 1 and 24 hours. Binding was determined using fluorescent microscopy and FACS. Cells were then seeded in a 96-well flat-bottom microplate (Costar, Corning, N.Y.) at a concentration of 5×10^4 cells/well. […] Additionally, a FACS assay was used for quantitative analysis. […] Quantitatively, specific binding affinity was assessed as the percentage of double stained [(GR=green and red indicating transfection)/(R is total red) less (G is green indicating unspecific binding)]: specific binding affinity=[GR/R−G]

[8] abbreviates: FACS, transfected HEK, specific binding affinity = percentage double stained [GR/R−G], 0 = no binding detected.
[9] abbreviates: Table 2 normalized according to the highest binding affinity of that compound.
The mark [10] stands for this setting: Table 2 normalized to Compound 1 (=100).

*1 amine or outer side, *2 acyl side, *3 side chain or, on linkers, in order; H or OH if unused. Where a SMILES comes first, the peptide text is derived from it. Bridges are numbered along the chain shown (N, C = ends). [ ]: non-standard residue; d: D form. The star is where a group is joined. FITC = O=C1OC2(c3ccc(O)cc3Oc3cc(O)ccc32)c2ccc(NC(=S)*)cc21; N(2-mercaptoethyl)Gly = O=C(CN(CCS[*:3])[*:1])[*:2]; Aib = CC(C)(N)C(=O)O; GABA = NCCCC(=O)O

T2 sequence (P30872 whole entry): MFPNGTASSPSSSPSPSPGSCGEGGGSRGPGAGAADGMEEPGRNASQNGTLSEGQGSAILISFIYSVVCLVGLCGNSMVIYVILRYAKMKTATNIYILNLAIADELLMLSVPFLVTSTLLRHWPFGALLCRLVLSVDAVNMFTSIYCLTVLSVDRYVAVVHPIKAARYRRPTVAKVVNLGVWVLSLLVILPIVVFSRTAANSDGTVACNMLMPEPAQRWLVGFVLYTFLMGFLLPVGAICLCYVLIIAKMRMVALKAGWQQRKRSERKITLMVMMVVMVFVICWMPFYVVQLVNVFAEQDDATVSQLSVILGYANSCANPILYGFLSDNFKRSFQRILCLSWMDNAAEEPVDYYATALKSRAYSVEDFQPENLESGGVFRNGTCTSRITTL
T4 sequence (P32745 whole entry): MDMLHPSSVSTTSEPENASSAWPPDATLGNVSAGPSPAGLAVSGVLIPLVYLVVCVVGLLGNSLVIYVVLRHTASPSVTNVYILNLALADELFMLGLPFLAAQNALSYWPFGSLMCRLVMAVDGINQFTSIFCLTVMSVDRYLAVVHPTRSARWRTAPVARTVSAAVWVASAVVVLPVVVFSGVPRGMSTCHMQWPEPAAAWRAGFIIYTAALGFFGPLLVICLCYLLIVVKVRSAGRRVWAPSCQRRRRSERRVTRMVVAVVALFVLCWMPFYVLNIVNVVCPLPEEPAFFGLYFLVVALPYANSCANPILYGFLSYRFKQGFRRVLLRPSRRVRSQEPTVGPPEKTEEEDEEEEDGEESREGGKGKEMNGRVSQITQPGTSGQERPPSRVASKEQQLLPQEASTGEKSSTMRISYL
T1 sequence (P30874 whole entry): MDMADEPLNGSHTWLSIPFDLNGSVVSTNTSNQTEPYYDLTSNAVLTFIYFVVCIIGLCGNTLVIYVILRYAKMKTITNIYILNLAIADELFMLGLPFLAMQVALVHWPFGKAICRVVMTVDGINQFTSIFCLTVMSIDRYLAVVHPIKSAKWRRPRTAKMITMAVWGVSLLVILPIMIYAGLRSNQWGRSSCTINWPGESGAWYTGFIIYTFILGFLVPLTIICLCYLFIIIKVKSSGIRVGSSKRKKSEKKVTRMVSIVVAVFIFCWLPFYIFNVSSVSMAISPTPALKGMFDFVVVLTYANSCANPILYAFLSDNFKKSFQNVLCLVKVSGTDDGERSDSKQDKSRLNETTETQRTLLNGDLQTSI

`C[C@@H](O)[C@@H]1NC(=O)[C@H](CCCCN)NC(=O)[C@@H](Cc2c[nH]c3ccccc23)NC(=O)[C@H](Cc2ccccc2)NC(=O)[C@H](CCCNC(=N)N)NC(=O)[C@@H](NC(=O)CCCNC(=S)Nc2ccc3c(c2)C(=O)OC32c3ccc(O)cc3Oc3cc(O)ccc32)CSSCCN(CC(N)=O)C(=O)[C@H](Cc2ccccc2)NC1=O` [Compound 9, FITC-GABA-Cys-Arg-Phe-D-Trp-Lys-Thr-Phe-GlyS2] ({FITC-GABA}-CRF[dW]KTF[N(2-mercaptoethyl)Gly]-NH2; disulfide 1-8): the “Intensity in healthy tissue (in words)” value in data set [1] was “undetectable in the healthy tissues”.

Take `C[C@@H](O)[C@@H]1NC(=O)C(C)(C)NC(=O)[C@@H](Cc2c[nH]c3ccccc23)NC(=O)[C@H](Cc2c[nH]c3ccccc23)NC(=O)[C@H](Cc2ccccc2)NC(=O)[C@@H](NC(=O)[C@@H](Cc2ccccc2)NC(=O)CCCNC(=S)Nc2ccc3c(c2)C(=O)OC32c3ccc(O)cc3Oc3cc(O)ccc32)CSSCCN(CC(N)=O)C(=O)[C@H](Cc2ccccc2)NC1=O` [Compound 13, FITC-GABA-D-Phe-Cys-Phe-Trp-D-Trp-Aib-Thr-Phe-GlyS2] ({FITC-GABA}-[dF]CFW[dW][Aib]TF[N(2-mercaptoethyl)Gly]-NH2; disulfide 2-9): the “Relative binding affinity SSTR2” value in data set [2] (setting [8]) is reported as 0. In addition, in data set [2] (setting [9]), the “Adjusted binding affinity SSTR2” value stood at 0. For the same compound, the “Binding affinity to SSTR2 relative to Compound 1” value in data set [2] (setting [10]) came out at 0. Moreover, the “Relative binding affinity SSTR1” value in data set [3] (setting [8]) is recorded as 1. Besides, in data set [3] (setting [9]), the “Adjusted binding affinity SSTR1” value was 0.11. Besides, the “Binding affinity to SSTR1 relative to Compound 1” value in data set [3] (setting [10]) worked out at 33. Besides, the “Relative binding affinity SSTR4” value in data set [4] (setting [8]) is 4. Further, in data set [4] (setting [9]), the “Adjusted binding affinity SSTR4” value is reported as 0.44. For the same compound, the “Binding affinity to SSTR4 relative to Compound 1” value in data set [4] (setting [10]) was determined as 18. In data set [5] (setting [8]), the “Relative binding affinity SSTR3” value was 6. The “Adjusted binding affinity SSTR3” value in data set [5] (setting [9]) amounted to 0.67. Also, the “Binding affinity to SSTR3 relative to Compound 1” value in data set [5] (setting [10]) was determined as 35. Also, the “Relative binding affinity SSTR5” value in data set [6] (setting [8]) turned out to be 9. The “Adjusted binding affinity SSTR5” value in data set [6] (setting [9]) was 1. For the same compound, the “Binding affinity to SSTR5 relative to Compound 1” value in data set [6] (setting [10]) was found to be 32. For the same compound, in data set [7], the “Binding specificity among the five SSTRx (in words)” value was “to SSTR3 and SSTR5 and not SSTR1, SSTR2 and SSTR4”.
